Source: ChEMBL document CHEMBL5360532, “Current scenario of quinolone hybrids with potential antibacterial activity against ESKAPE pathogens” (Eur J Med Chem, 2023)
Values after ≈ are worked out from the molar mass of the structure shown.

Experiments:
Type in all cases: functional
Staphylococcus aureus [1] = test: Antibacterial activity against Staphylococcus aureus assessed as bacterial growth inhibition by broth microdilution assay
Escherichia coli [2] = test: Antibacterial activity against Escherichia coli assessed as bacterial growth inhibition by broth microdilution assay
Pseudomonas aeruginosa [3] = test: Antibacterial activity against Pseudomonas aeruginosa assessed as bacterial growth inhibition by broth microdilution assay
Klebsiella pneumoniae [4] = test: Antibacterial activity against Klebsiella pneumoniae assessed as bacterial growth inhibition by two fold microdilution assay
Staphylococcus aureus [5] = test: Antibacterial activity against Staphylococcus aureus assessed as bacterial growth inhibition by two fold microdilution assay
Escherichia coli [6] = test: Antibacterial activity against Escherichia coli assessed as bacterial growth inhibition by two fold microdilution assay
Staphylococcus aureus [7] = test: Antibacterial activity against methicillin resistant Staphylococcus aureus ATCC 33591 assessed as bacterial growth inhibition measured after 16 to 18 hrs by serial dilution method; conditions: time 16-18 hrs
Escherichia coli [8] = test: Antibacterial activity against fluoroquinolone Escherichia coli assessed as bacterial growth inhibition by broth microdilution assay
Enterococcus faecalis = test: Antibacterial activity against Enterococcus faecalis assessed as bacterial growth inhibition by broth microdilution assay
Escherichia coli [9] = test: Antibacterial activity against Escherichia coli ATCC 8739 assessed as bacterial growth inhibition by two fold microdilution assay
Staphylococcus aureus [10] = test: Antibacterial activity against Staphylococcus aureus ATCC 6538P assessed as bacterial growth inhibition by two fold microdilution assay
Staphylococcus aureus [11] = test: Antibacterial activity against Staphylococcus aureus assessed as bacterial growth inhibition by agar cup diffusion assay
Staphylococcus aureus [12] = test: Antibacterial activity against methicillin resistant Staphylococcus aureus assessed as bacterial growth inhibition by agar cup diffusion assay
Escherichia coli [13] = test: […] activity against Escherichia coli assessed as bacterial growth inhibition by broth dilution assay
Pseudomonas aeruginosa [14] = test: Antibacterial activity against Pseudomonas aeruginosa ATCC 11632 assessed as bacterial growth inhibition measured after 24 to 48 hrs by agar dilution assay; conditions: time 24-48 hrs
Escherichia coli [15] = test: Antibacterial activity against Escherichia coli ATCC 10536 assessed as bacterial growth inhibition measured after 24 to 48 hrs by agar dilution assay; conditions: time 24-48 hrs
Escherichia coli [16] = test: Antibacterial activity against Escherichia coli assessed as bacterial growth inhibition by agar cup diffusion assay
Pseudomonas aeruginosa [17] = test: Antibacterial activity against Pseudomonas aeruginosa assessed as bacterial growth inhibition by agar cup diffusion assay
Klebsiella pneumoniae [18] = test: Antibacterial activity against Klebsiella pneumoniae assessed as bacterial growth inhibition by agar cup diffusion assay
Escherichia coli [19] = test: Potency index, ratio of ciprofloxacin MIC to test compound MIC for antimicrobial activity against Escherichia coli assessed as bacterial growth inhibition by agar cup diffusion assay
Staphylococcus aureus [20] = test: Potency index, ratio of ciprofloxacin MIC to test compound MIC for antimicrobial activity against Staphylococcus aureus assessed as bacterial growth inhibition by agar cup diffusion assay
[21] = system: Mycobacterium tuberculosis; test: Antimycobacterial activity against Mycobacterium tuberculosis H37Rv assessed as bacterial growth inhibition by broth microdilution assay
Staphylococcus aureus [22] = test: Antibacterial activity against Staphylococcus aureus ATCC 25923 assessed as bacterial growth inhibition measured after 18 hrs by agar dilution assay
Escherichia coli [23] = test: Antibacterial activity against Escherichia coli ATCC 25922 assessed as bacterial growth inhibition measured after 18 hrs by agar dilution assay

## CCn1cc(C(=O)O)c(=O)c2cc(F)c(N3CCN(Cn4nc(-c5ccncc5)oc4=S)CC3)cc21
Staphylococcus aureus [1]
  MIC: ≤ 0.125 µg/mL
Escherichia coli [2]
  MIC: ≤ 0.125 µg/mL
Pseudomonas aeruginosa [3]
  MIC: ≤ 0.125 µg/mL

## CCn1cc(C(=O)O)c(=O)c2cc(F)c(N3CCN(Cn4nc(Cn5nc(C)n(/N=C/c6ccccc6O)c5=O)n(-c5ccccc5)c4=S)CC3)cc21
Klebsiella pneumoniae [4]
  MIC: < 0.24 µg/mL
Staphylococcus aureus [5]
  MIC: < 28 µg/mL
Escherichia coli [6]
  MIC: < 0.24 µg/mL

## Cc1ccc(-c2ccnc(Nc3ccc4c(=O)c(C(=O)O)cn(C5CC5)c4c3)n2)cc1
Staphylococcus aureus [7]
  MIC: 0.38 µg/mL (≈ 0.921 µM)

## CCCCCCOc1ccc(C2C(Cl)C(=O)N2c2cc3[nH]cc(C(=O)O)c(=O)c3cc2F)cc1 (stereo not given)
Staphylococcus aureus [1]
  MIC: 0.02 µg/mL (≈ 0.0411 µM)
Escherichia coli [8]
  MIC: 0.02 µg/mL (≈ 0.0411 µM)
Escherichia coli [2]
  MIC: 0.02 µg/mL (≈ 0.0411 µM)
Enterococcus faecalis
  MIC: 0.02 µg/mL (≈ 0.0411 µM)

## Cc1nn(Cc2nn(CN3CCN(c4cc5c(cc4F)c(=O)c(C(=O)O)cn5C4CC4)CC3)c(=O)n2-c2ccccc2)c(=O)n1/N=C/c1ccccc1O
Klebsiella pneumoniae [4]
  MIC: < 0.24 µg/mL
Staphylococcus aureus [5]
  MIC: < 28 µg/mL
Escherichia coli [6]
  MIC: < 0.24 µg/mL

## CCn1cc(C(=O)O)c(=O)c2cc(F)c(N3CCN(Cn4nc(-c5cccs5)n(-c5ccc(OC)cc5)c4=S)CC3)cc21
Klebsiella pneumoniae [4]
  MIC: ≤ 0.125 µg/mL
Escherichia coli [9]
  MIC: ≤ 0.125 µg/mL
Staphylococcus aureus [10]
  MIC: ≤ 0.125 µg/mL

## O=C(O)c1cn(C2CC2)c2cc(N3CCN(C(=O)CN4C(=O)S/C(=C\c5ccco5)C4=O)CC3)c(F)cc2c1=O
Staphylococcus aureus [11]
  MIC: 0.005 µg/mL (≈ 0.00883 µM)
Staphylococcus aureus [12]
  MIC: 0.22 µg/mL (≈ 0.388 µM)

## CCCc1nn(CN2CCN(c3ncc4c(=O)c(C(=O)O)cn(CC)c4n3)CC2)c(=S)n1-c1cccc(OC)c1
Escherichia coli [13]
  MIC: 0.98 µg/mL (≈ 1.74 µM)

## O=C(O)c1cn(C2CC2)c2cc(N3CCN(C(=O)CN4C(=O)S/C(=C\c5ccccc5)C4=O)CC3)c(F)cc2c1=O
Staphylococcus aureus [11]
  MIC: 0.005 µg/mL (≈ 0.00867 µM)
Staphylococcus aureus [12]
  MIC: 0.02 µg/mL (≈ 0.0347 µM)

## Cc1nn(Cc2nn(CN3CCN(c4cc5c(cc4F)c(=O)c(C(=O)O)cn5C4CC4)CC3)c(=S)n2Cc2ccccc2)c(=O)n1/N=C/c1ccccc1O
Klebsiella pneumoniae [4]
  MIC: < 0.24 µg/mL
Staphylococcus aureus [5]
  MIC: < 28 µg/mL
Escherichia coli [6]
  MIC: < 0.24 µg/mL

## Cn1c(=O)c(C(=O)CNc2ccc(-c3nc4ccc(Cl)c(Cl)c4s3)cc2)c(O)c2ccccc21
Pseudomonas aeruginosa [14]
  MIC: 0.5 µg/mL (≈ 0.98 µM)
Escherichia coli [15]
  MIC: 0.5 µg/mL (≈ 0.98 µM)

## CCn1cc(C(=O)O)c(=O)c2cc(F)c(N3CCN(Cn4nc(Cn5nc(C)n(/N=C/c6ccccc6O)c5=O)n(Cc5ccccc5)c4=S)CC3)cc21
Klebsiella pneumoniae [4]
  MIC: < 0.24 µg/mL
Staphylococcus aureus [5]
  MIC: < 28 µg/mL
Escherichia coli [6]
  MIC: < 0.24 µg/mL

## Cc1nn(Cc2nn(CN3CCN(c4cc5c(cc4F)c(=O)c(C(=O)O)cn5C4CC4)CC3)c(=S)n2-c2ccccc2)c(=O)n1/N=C/c1ccccc1O
Klebsiella pneumoniae [4]
  MIC: < 0.24 µg/mL
Staphylococcus aureus [5]
  MIC: < 28 µg/mL
Escherichia coli [6]
  MIC: < 0.24 µg/mL

## Cc1ccc(Oc2ccnc(Nc3ccc4c(=O)c(C(=O)O)cn(C5CC5)c4c3)n2)cc1C
Staphylococcus aureus [7]
  MIC: 0.38 µg/mL (≈ 0.859 µM)

## CCn1cc(C(=O)O)c(=O)c2cc(F)c(N3CCN(Cn4nc(-c5ccccn5)n(-c5ccc(OC)cc5)c4=S)CC3)cc21
Klebsiella pneumoniae [4]
  MIC: ≤ 0.125 µg/mL
Escherichia coli [9]
  MIC: ≤ 0.125 µg/mL
Staphylococcus aureus [10]
  MIC: ≤ 0.125 µg/mL

## CCCCc1nn(CN2CCN(c3ncc4c(=O)c(C(=O)O)cn(CC)c4n3)CC2)c(=S)n1-c1cccc(OC)c1
Escherichia coli [13]
  MIC: 0.98 µg/mL (≈ 1.69 µM)

## CCc1nn(CN2CCN(c3ncc4c(=O)c(C(=O)O)cn(CC)c4n3)CC2)c(=S)n1-c1cccc(OC)c1
Escherichia coli [13]
  MIC: 0.98 µg/mL (≈ 1.78 µM)

## C[C@@H](N)C(=O)N1CCN(c2cc3c(cc2F)c(=O)c(C(=O)N2CCOCC2)cn3C2CC2)CC1
Escherichia coli [2]
  MIC: 0.4 µg/mL (≈ 0.848 µM)

## CCn1cc(C(=O)O)c(=O)c2cc(F)c(N3CCN(Cn4nc(-c5cccnc5)oc4=S)CC3)cc21
Staphylococcus aureus [1]
  MIC: ≤ 0.125 µg/mL
Escherichia coli [2]
  MIC: ≤ 0.125 µg/mL
Pseudomonas aeruginosa [3]
  MIC: ≤ 0.125 µg/mL

## O=C(CN1CCN(c2cc3c(cc2F)c(=O)c(C(=O)O)cn3C2CC2)CC1)Nc1nnc(-c2ccc(Cl)cc2)s1
Escherichia coli [16]
  MIC: 1.12 µg/mL (≈ 1.92 µM)
Staphylococcus aureus [11]
  MIC: 1.12 µg/mL (≈ 1.92 µM)
Pseudomonas aeruginosa [17]
  MIC: 9.11 µg/mL (≈ 15.6 µM)
Klebsiella pneumoniae [18]
  MIC: 1.12 µg/mL (≈ 1.92 µM)
Escherichia coli [19]
  Ratio: 4.6
Staphylococcus aureus [20]
  Ratio: 4.6

## CC1(C)S[C@@H]2[C@H](NC(=O)[C@H](N)c3ccccc3)C(=O)N2[C@H]1C(=O)O [AMPICILLIN]
Pseudomonas aeruginosa [14]
  MIC: 0.5 µg/mL (≈ 1.43 µM)
Escherichia coli [15]
  MIC: 0.5 µg/mL (≈ 1.43 µM)

## COc1c(N2CCNC(C)C2)c(F)cc2c(=O)c(C(=O)O)cn(C3CC3)c12 (stereo not given) [GATIFLOXACIN]
Pseudomonas aeruginosa [14]
  MIC: 0.25 µg/mL (≈ 0.666 µM)
Staphylococcus aureus [1]
  MIC: 0.72 µg/mL (≈ 1.92 µM)
Escherichia coli [15]
  MIC: 0.25 µg/mL (≈ 0.666 µM)
Escherichia coli [8]
  MIC: 0.66 µg/mL (≈ 1.76 µM)
Escherichia coli [2]
  MIC: 0.66 µg/mL (≈ 1.76 µM)
Enterococcus faecalis
  MIC: 0.47 µg/mL (≈ 1.25 µM)

## NNC(=O)c1ccncc1 [ISONIAZID]
[21]
  MIC: 1.5 µg/mL (≈ 10.9 µM)

## C[C@H]1COc2c(N3CCN(C)CC3)c(F)cc3c(=O)c(C(=O)O)cn1c23 [LEVOFLOXACIN ANHYDROUS]
Staphylococcus aureus [1]
  MIC: 0.66 µg/mL (≈ 1.83 µM)
Escherichia coli [8]
  MIC: 0.47 µg/mL (≈ 1.3 µM)
Escherichia coli [2]
  MIC: 0.47 µg/mL (≈ 1.3 µM)
Enterococcus faecalis
  MIC: 0.72 µg/mL (≈ 1.99 µM)

## CCn1cc(C(=O)O)c(=O)c2cnc(N3CCNCC3)nc21 [PIPEMIDIC ACID]
Staphylococcus aureus [22]
  MIC: 19.5 µg/mL (≈ 64.3 µM)
Escherichia coli [23]
  MIC: 19.5 µg/mL (≈ 64.3 µM)

## CO[C@H]1/C=C/O[C@@]2(C)Oc3c(C)c(O)c4c(O)c(c(/C=N/N5CCN(C)CC5)c(O)c4c3C2=O)NC(=O)/C(C)=C\C=C\[C@H](C)[C@H](O)[C@@H](C)[C@@H](O)[C@@H](C)[C@H](OC(C)=O)[C@@H]1C [RIFAMPIN]
[21]
  MIC: 1 µg/mL (≈ 1.22 µM)
